Test results reported in publication PMC4624142, “Purification and characterisation of intracellular alpha-galactosidases from Acinetobacter sp” (3 Biotech, 2015).

Columns and labels:
Type in all cases: biochemical, Acinetobacter sp.
Settings in all cases: 20 mM Tris pH 7.0, 50 °C; unit mM ml^−1 [sic]
[1] = tested on: T1, alpha-galactosidase II (Ag-II); experiment: p-nitrophenol release at […] nm, Lineweaver-Burk
T1 construct: native intracellular enzyme purified from Acinetobacter sp. isolate G1 (soil, sugarcane industry, Sangareddy, India); 37 kDa, monomer

[2] = tested on: T2, alpha-galactosidase I (Ag-I); experiment: p-nitrophenol release at […] nm, Lineweaver-Burk
T2 construct: native intracellular enzyme purified from Acinetobacter sp. isolate G1 (soil, sugarcane industry, Sangareddy, India); 65 kDa, monomer

[3] = tested on: T1, alpha-galactosidase II (Ag-II); experiment: reducing sugar (DNS, […] nm), Lineweaver-Burk
[4] = tested on: T2, alpha-galactosidase I (Ag-I); experiment: reducing sugar (DNS, […] nm), Lineweaver-Burk

Row | Structure (SMILES) | Michaelis constant (K m) mM ml^-1 [1] | Michaelis constant (K m) mM ml^-1 [2] | Michaelis constant (K m) mM ml^-1 [3] | Michaelis constant (K m) mM ml^-1 [4]
1 | O=[N+]([O-])c1ccc(O[C@H]2O[C@H](CO)[C@H](O)[C@H](O)[C@H]2O)cc1 [ρNPGal, p-Nitrophenyl-α-D-galactopyranoside] | 0.68 mM ml^−1 | 0.33 mM ml^−1 |  | 
2 | OC[C@H]1O[C@H](OC[C@H]2O[C@H](O[C@]3(CO)O[C@H](CO)[C@@H](O)[C@@H]3O)[C@H](O)[C@@H](O)[C@@H]2O)[C@H](O)[C@@H](O)[C@H]1O [Raffinose] |  |  | 0.74 mM ml^−1 | 3.26 mM ml^−1
